Values quoted from earlier work, collected in patent US20180140592A1, “5-CHLORO-4-HYDROXY-1-METHYL-2-OXO-N-PHENYL-1,2-DIHYDROQUINOLINE-3-CARBOXAMIDE, SALTS AND USES THEREOF” (Teva Pharmaceutical Industries, Ltd., priority 2010, published 2018).

Experiments:
relapsing MS = conditions: Polman et al. 2005
[1] = system: experimental inflammatory/autoimmune animal models; conditions: EAE, DSS induced colitis, NOD mice, EAN, SLE and others
[2] = system: acute experimental autoimmune encephalomyelitis (aEAE) model; conditions: U.S. Pat. No. 6,077,851

SMILES: CCN(C(=O)c1c(O)c2c(Cl)cccc2n(C)c1=O)c1ccccc1 [Laquinimod, N-ethyl-N-phenyl-1,2-dihydro-4-hydroxy-5-chloro-1-methyl-2-oxoquinoline-3-carboxamide]
- development of active MRI lesions (relapsing MS): reduce development of active MRI lesions
- therapeutic effect in animal models [1]: demonstrated therapeutic effect
- efficacy in the aEAE model [2]: effective
